Entries after “also recorded” stand apart in the source; their conditions may differ.
Assays:
[1] = system: patients with Bipolar I or Bipolar II disorder experiencing a major depressive episode; assay: Phase 3 placebo-controlled clinical trial, efficacy (MADRS, CGI-BP-S); type: in vivo, human
Description: (§1) A multi-center, multi-national, randomized, double-blind, fixed-dose, placebo-controlled clinical trial is conducted substantially in accordance with the following protocol.
(§2) Patients are recruited according to the following criteria: • Major Inclusion Criteria: Male or female subjects of any race, ages 18-75 inclusive, with a clinical diagnosis of Bipolar I or Bipolar II disorder, experiencing a current major depressive episode, and able to provide written informed consent. • Major Exclusion Criteria: Any female subject who is pregnant or breast-feeding, and any subject judged to be medically inappropriate for study participation.
(§3) In the placebo arm, placebo is administered once daily every evening for 6 weeks. […] The study is quadruple-masked (i.e., to participant, care provider, investigator, and outcomes assessor).
(§4) The total study duration is about 10 weeks, including up to 2 weeks screening period (washout of prohibited medications), a 6-week double-blind treatment period, and 2-week safety follow-up period.
The primary outcome measure is the Montgomery-Åsberg Depression Rating Scale (MADRS) [Time Frame: Day 43]. Secondary outcome measures are the Clinical Global Impression Scale, Bipolar version (CGI-BP) [Time Frame: Day 43] and the Quality of Life Enjoyment and Satisfaction Questionnaire-Short Form (Q-LES-Q-SF) [Time Frame: Day 43].

[2] = system: patients with Bipolar I or Bipolar II disorder experiencing a major depressive episode; assay: Phase 3 placebo-controlled clinical trial, safety and tolerability; type: in vivo, human
Description: as §1, §2, §3, §4
Incidence of Adverse Events (AEs) • b. Young Mania Rating Scale (YMRS) • c. Columbia Suicide Severity Rating Scale (C-SSRS) • d. Abnormal Involuntary Movement Scale (AIMS) • e. Barnes Akathisia Rating Scale (BARS) • f. Simpson Angus Scale (SAS) • g. Clinical laboratory evaluations • h. Electrocardiograms (ECGs) • i. Vital sign measurements • j. Physical examination and neurological findings

[3] = 42 mg once daily orally for 6 weeks, Day 43, ITT
[4] = 42 mg once daily orally for 6 weeks, Day 43, listed as lumateperone
[5] = 42 mg once daily orally for 6 weeks, change from baseline to Day 43, ITT
[6] = 42 mg once daily, week 6, ITT population

SMILES: CN1CCN2c3c(cccc31)[C@@H]1CN(CCCC(=O)c3ccc(F)cc3)CC[C@@H]12 [Lumateperone, 4-((6bR,10aS)-3-methyl-2,3,6b,9,10,10a-hexahydro-1H-pyrido[3′,4′: 4,5]pyrrolo[1,2,3-de]quinoxalin-8(7H)-yl)-1-(4-fluorophenyl)-1-butanone]
- MADRS total score versus placebo, subgroup of patients with Bipolar II disorder ([1]; 42 mg daily, subgroup analysis, Bipolar II disorder): statistically significant superior versus placebo; also recorded: statistically significant superior to placebo
- Responder rates and remission rates versus placebo ([1]; 42 mg once daily): statistically significant benefits
- Time of first statistically significant separation from placebo on MADRS total score ([1]; 42 mg once daily): as early as week 1
- MADRS total score, Effect Size, comparison to placebo at Day 43 ([1]; 42 mg once daily orally for 6 weeks, Day 43): −0.56
- CGI-BP-S total score, LSMD (SE), comparison to placebo at Day 43 [1, 3]: −0.9 (0.22)
- MADRS total score, LSMD (SE), comparison to placebo at Day 43 [1, 3]: -4.6
- CGI-BP-S total score, Effect Size, comparison to placebo at Day 43 [1, 4]: 0.46
- MADRS total score, Effect Size, comparison to placebo at Day 43 [1, 4]: 0.56
- CGI-BP-S total score, LS Mean (SE) Change at Day 43 [1, 5]: −3.5 (0.17)
- MADRS total score, LS Mean (SE) Change at Day 43 [1, 5]: −16.7 (0.69)
- CGI-S Depression Score, effect size versus placebo ([1]; 42 mg once daily, 6 weeks): 0.5
- MADRS total score, LS mean difference versus placebo [1, 6]: 4.6 points
- MADRS total score, least squares (LS) mean reduction from baseline [1, 6]: 16.7 points
- Emergence of mania as measured by the Young Mania Rating Scale (YMRS) and clinical global impression of severity for mania ([2]; 42 mg daily): did not exhibit emergence of mania
- Extrapyramidal symptoms, akathisia, restlessness or other motor side effects (adverse event reports) ([2]; 42 mg daily): does not increase akathisia, restlessness, or other movement disorders; also recorded: no adverse event reports of extrapyramidal symptoms
- Metabolic effects (hyperglycemia, dyslipidemia, weight gain) ([2]; 42 mg daily): does not have significant metabolic side effects; also recorded: did not appear to have any noticeable metabolic effects
- Overall safety profile / tolerability ([2]; 42 mg daily): favorable safety profile in this trial, comparable to placebo; also recorded: generally safe and well tolerated
- Rate of the most commonly reported adverse events (headache, somnolence and nausea), higher than placebo ([2]; 42 mg daily): greater than 5%
- Rates of akathisia and extrapyramidal symptoms ([2]; 42 mg daily): less than 1%
- Suicidal ideation (adverse event reports) ([2]; 42 mg daily): does not increase suicidal ideation; also recorded: no adverse event reports of suicidal ideation
- Number of patients with drug-related TEAE ([2]; 42 mg, N = 188): 78 (41.5) n (%)
- Number of patients with drug-related treatment-emergent SAE ([2]; 42 mg, N = 188): 0 n (%)
- Number of patients with treatment-emergent SAE ([2]; 42 mg, N = 188): 1 (0.5) n (%)
- Number of patients with treatment-emergent death ([2]; 42 mg, N = 188): 0 n (%)
- Subjects discontinued study due to TEAE ([2]; 42 mg, N = 188): 11 (5.9) n (%)
- Subjects discontinued study due to drug-related TEAE ([2]; 42 mg, N = 188): 9 (4.8) n (%)
- Subjects discontinued study due to drug-related treatment-emergent SAE ([2]; 42 mg, N = 188): 0 n (%)
- Subjects discontinued study due to treatment-emergent SAE ([2]; 42 mg, N = 188): 1 (0.5) n (%)
- Subjects who died ([2]; 42 mg, N = 188): 0 n (%)
- Number of patients with one or more TEAE ([2]; 42 mg, N = 188, safety population): 103 (54.8) n (%)

Reference: patent publication US12090155B2, “Methods” (INTRA-CELLULAR THERAPIES, INC., priority 2019, dated 2024)
